One data set relates to THP-1 cells. As to the kind of experiment: Growth inhibition of THP-1 human monocytic leukemia cells (WST-1 reagent). In kind it is cell-based. On the procedure: (§1) The tumor growth inhibiting activity of the substances was determined on human tumor cells in standardized in vitro test systems. In the screening tests, the substances gave IC50-values in a concentration range of 0.1 nM to 10 μM.
THP-1 cells derived from a human monocytic leukemia plated at a density of 200,000 cells/ml in 96-well plastic dishes. Cultivation occurred in RPMI 1640 nutrient medium with 10% foetal calf serum (FCS) in a tissue culture incubator with a gas mixture of 5% CO2 and 95% air at a temperature of 37° C. For the individual concentrations and the controls without test substances as well as for the background with nutrient medium but without cells, three-fold batches were done for each. After four days of substance incubation 20 μl WST-1 reagent (Boehringer Mannheim) was respectfully pipetted in each individual well. After 30 to 60 minute incubation in the tissue culture incubator at 37° C. and 5% CO2, the light extinction was measured in an ELISA reader at 450 nm wave length. The backgrounds were each subtracted from the typical measured valves. The IC50-values (defined as that concentration in which the cell growth was inhibited by 50%) was taken from the dose-response curves and given as a comparative measurement for the activity of the test compounds.
(In general: Tetrazolium dyes change colour on reduction, which living cells bring about.)

The subject of the next data set is HepG2 cells. As to the kind of experiment: Growth inhibition of HepG2 human liver carcinoma cells (sulforhodamin-B method). In kind it is cell-based. On the procedure:
as §1
(§2) HepG2 cells derived from a human liver carcinoma plated at a density of 20,006 cells/ml in 12-well plastic dishes. Cultivation occurred in Richters IMEM-ZO nutrient medium with 5% foetal calf serum (FCS) in a tissue culture incubator with a gas mixture of 5% CO2 and 95% air at a temperature of 37° C. One day after plating, the culture medium was aspirated from the cells and replaced by fresh medium which contained the respective concentrations of the test substances. For the individual concentrations and the controls without test substances, three-fold batches were done for each. Three days after the beginning of treatment, the medium was again renewed with the test compounds. After six days of substance incubation, the test was ended and the protein amount in the individual wells was determined with the sulforhodamin-B-method (according to P. Skehan et al.: New Colorimetric Cytotoxicity Assay for Anticancer-Drug Screening. J. Natl. Cancer Inst. 82: 1107-1112, 1990). The IC50-values (defined as that concentration in which the cell growth was inhibited by 50%) was taken from the dose-response curves and given as a comparative measurement for the activity of the test compounds.

Data set [1] concerns freshly isolated lymphocytes. As to the kind of experiment: Immunosuppressing activity on freshly isolated spleen lymphocytes (flow cytometry, vital cells). Particulars: Lymphocyte, 48 h; Swiss mouse spleen lymphocytes, 2 days incubation, percentage of vital cells by flow-through cytometer. In kind it is cell-based. An excerpt:
Many anti-tumor agents have not only a cytotoxic effect on tumor cells, but also on the blood cell system. This leads to a weakening of the immune defense, which can, in turn, be specifically employed to suppress the rejection reaction after an organ transplantation for example. Also use of the main compounds, optionally in combination with other immunological diseases (for example, psoriasis or autoimmune diseases) seems likely. In order to test the possibility for a therapeutic use in illnesses of this type, the substance activity was tested on freshly isolated lymphocytes as follows:
The spleen of a Swiss mouse served as a lymphocyte source. The lymphocyte population was isolated from the spleen cell […] suspension over a ficoll gradient and taken up in IMEM-ZO culture medium with 0.1% dextran 70,000 and 2% foetal calf serum. The cells were plated at a density of ca. 500,000 cells/well/ml in a 12-well plate, 1 ml doubly concentrated test substance solution was pipetted per well and this was subsequently incubated in a tissue culture incubator at 37° C. and 5% CO2. After 2 days, a 1 ml-aliquot with 5 μl of the fluorescent dye solutions propidium iodide (8 mg/ml) and 3,3′-dihexyloxacarbocyanin iodide (40 μg/ml) each was added per well, and incubated for 3 minutes at room temperature. Subsequently, 10,000 cells per each sample were measured on a flow-through cytometer and the percentage amount of vital cells in the population was determined. By means of the dose-response curves, IC50-values were calculated which were also employed in the following Tables for the characterization of the individual substances: […]

The subject of another data set is A549 cells. As to the kind of experiment: Growth inhibition of A549 human lung carcinoma cells (sulforhodamin-B method). Format: cell-based. On the procedure: as §1
as §2, with “A549” for “HepG2”, “lung” for “liver”, “20,000” for “20,006”, “four” for “six”

The mark [2] stands for this setting: 96 h, A549 cells, four days of substance incubation, protein amount by sulforhodamin-B, read-out: IC50-value.
Setting [3] is: 144 h, HepG2 cells, six days of substance incubation, protein amount by sulforhodamin-B, read-out: IC50-value.

Where two headings read alike, the source gives them in different places.

A word on the melting point: it is the temperature, or range, at which the solid turns liquid. In general, IC50 refers to the concentration that gives 50% inhibition. In turn, `O=C(C=Cc1cccnc1)NCCCCC=C(c1ccccc1)c1ccccc1` [Substance 120, N-(6,6-diphenyl-hex-5-enyl)-3-pyridin-3-yl-acrylamide] showed a melting point of 120 to 121 °C. In the data set on THP-1 cells (96 h, THP-1 cells, four days of substance incubation, WST-1, extinction at 450 nm, read-out: IC50-value), the IC50 turned out to be 0.2 nM. The IC50 in the data set on THP-1 cells (THP-1, monocytic leukemia, methods of point 1, read-out: IC50-values) is 0.2 nM. For the same compound, in the data set on HepG2 cells (HepG2, hepatocelluar carcinoma, methods of point 1, read-out: IC50-values), the IC50 was 0.5 nM. The IC50 in data set [1] was determined as 0.5 nM. In addition, the IC50 with A549 cells (A549, lung carcinoma, methods of point 1, read-out: IC50-values) was 2 nM.

In turn, `O=C(C=Cc1cccnc1)NCCCCNC(=O)[C@@H]1C[C@H]1c1ccccc1` (relative stereo) [Substance 250, N-[4-(trans-2-phenyl-cyclopropyl-carbonylamino)-butyl]-3-pyridin-3-yl-acrylamide] had a melting point of 194 to 196 °C. Take `O=C(C=Cc1cccnc1)NCCCCCCCc1ccccc1` [Substance 3, N-(7-phenyl-heptyl)-3-pyridin-3-yl-acrylamide]: the melting point lay in the range of 61 to 63 °C. In addition, the IC50 in the data set on A549 cells (setting [2]) came out at 8000 nM. In the case of `O=C(C=Cc1cccnc1)NCCCCC(O)(c1ccccc1)c1ccccc1` [Substance 27, N-(5-hydroxy-5,5-diphenyl-pentyl)-3-pyridin-3-yl-acrylamide], the melting point lay within 157 to 159 °C. The 50% inhibitory concentration (IC50) in the data set on HepG2 cells (setting [3]) was determined as 40 nM. On to `O=C(C=Cc1cccnc1)NCCCCNC(=O)N(c1ccccc1)c1ccccc1` [Substance 268, N-[4-(3,3-diphenyl-ureido)-butyl]-3-pyridin-3-yl-acrylamide], for which the melting point lay in the range of 123 to 125 °C. The same measure, in the same setting: then `O=C(C=Cc1cccnc1)NCCCCCCNC(=O)N1c2ccccc2CCc2ccccc21` [Substance 295, N-[6-(10,11-dihydro-dibenzo[b,f]azepin-5-yl-carbonylamino)-hexyl]-3-pyridin-3-yl-acrylamide], with 97 to 99 °C; and `O=C(C=Cc1cccnc1)NCCCCCC(O)(c1ccccc1)c1ccccc1` [Substance 31, N-(6-hydroxy-6,6-diphenyl-hexyl)-3-pyridin-3-yl-acrylamide], with 145 to 147 °C.

For the compound `O=C(C=Cc1cccnc1)NCCCCNC(c1ccccc1)c1ccccc1` [Substance 187, N-[4-(benzhydryl-amino)-butyl]-3-pyridin-3-yl-acrylamide], the melting point fell in the range of 101 to 102 °C. Also, the IC50 in the data set on HepG2 cells (setting [3]) is 200 nM. Further, in the data set on A549 cells (setting [2]), the IC50 amounted to 400 nM. Take `O=C(C=Cc1cccnc1)NCCCCn1cnc(-c2ccccc2)c1-c1ccccc1` [Substance 63, N-[4-(4,5-diphenyl-imidazol-1-yl)-butyl]-3-pyridin-3-yl-acrylamide]: the melting point was determined as 183 °C. Besides, the IC50 with HepG2 cells (setting [3]) came out at 8 nM. Moreover, the IC50 in data set [1] was 0.3 nM. Consider `O=C(C=Cc1cccnc1)NCCCCCCCC(O)(c1ccccc1)c1ccccc1` [Substance 41, N-(8-hydroxy-8,8-diphenyloctyl)-3-pyridin-3-yl-acrylamide], for which the melting point lay within 139 to 140 °C. For the compound `CN(CCCCNC(=O)C=Cc1cccnc1)CCN(C)C(c1ccccc1)c1ccccc1` [Substance 193, N-(4-{[2-(benzhydryl-methyl-amino)-ethyl]-methyl-amino}-butyl)-3-pyridin-3-yl-acrylamide], the melting point lay in the range of 89 to 91 °C. Besides, in the data set on A549 cells (setting [2]), the IC50 turned out to be 1000 nM. The compound `Cc1ccc(S(=O)(=O)NCCCCCCNC(=O)C=Cc2cccnc2)cc1` [Substance 310, 3-Pyridin-3-yl-N-[6-(tosylamino)-hexyl]-acrylamide] showed a melting point of 91 to 93 °C. In turn, `O=C(C=Cc1cccnc1)NCCCCNC(=O)C(c1ccccc1)c1ccccc1` [Substance 247, N-(4-diphenylacetylamino-butyl)-3-pyridin-3-yl-acrylamide] had a melting point of 171 to 172 °C. For the same compound, the IC50 in data set [1] stood at 80 nM. In the data set with A549 cells (setting [2]), the IC50 came out at 2000 nM.

`O=C(C=Cc1cccnc1)NCCCCCCNC(=O)N(c1ccccc1)c1ccccc1` [Substance 270, N-[6-(3,3-diphenyl-ureido)-hexyl]-3-pyridin-3-yl-acrylamide]: the melting point is 105 to 107 °C. The compound `O=C(C=Cc1cccnc1)NCCCCN1CCc2ccccc2C(c2ccccc2)C1` (centres unmarked) [Substance 207, N-[4-(1-phenyl-1,2,4,5-tetrahydrobenzo[d]azepin-3-yl)-butyl]-3-pyridin-3-yl-acrylamide] showed a melting point of 92 to 94 °C.

The values are drawn from US7320993B1, “Aryl-substituted pyridylalkane, alkene, and alkine carboxamides useful as cytostatic useful as cytostatic and immuosuppressive agents” (Astellas Deutschland GmbH, priority 1997, dated 2008).
